Literature values in patent publication US20250114344A1, “COMBINATORIAL PHARMACOTHERAPY FOR THE RESTORATION OF NEURO-FUNCTION AND COMBINATORIAL PHARMACOLOGICAL COMPOSITION THEREFORE” (Neuro-Innovators, LLC., priority 2022, published 2025).

Experiments:
MANF (a form of BDNF) = details: Prefrontal Cortex and Striatum, compared to controls
[1] = compared with aspirin; fewer hemorrhagic events
CYP3A4 = CYP3A4 (Homo sapiens, UniProt P08684)
CYP3A4, sequence (P08684 whole entry, species assumed): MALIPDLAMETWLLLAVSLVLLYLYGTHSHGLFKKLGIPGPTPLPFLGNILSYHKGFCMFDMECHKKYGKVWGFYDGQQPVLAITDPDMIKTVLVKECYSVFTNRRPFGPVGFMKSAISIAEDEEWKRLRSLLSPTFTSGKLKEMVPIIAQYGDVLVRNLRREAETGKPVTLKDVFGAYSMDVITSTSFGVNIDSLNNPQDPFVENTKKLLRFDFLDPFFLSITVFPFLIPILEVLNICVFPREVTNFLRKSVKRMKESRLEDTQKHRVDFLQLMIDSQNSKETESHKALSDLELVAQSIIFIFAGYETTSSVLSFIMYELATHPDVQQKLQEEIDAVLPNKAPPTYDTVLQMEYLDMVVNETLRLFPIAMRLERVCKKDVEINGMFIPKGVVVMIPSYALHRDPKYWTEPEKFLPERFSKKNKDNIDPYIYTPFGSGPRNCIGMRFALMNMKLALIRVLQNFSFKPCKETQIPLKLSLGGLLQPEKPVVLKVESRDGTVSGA

| Compound | MANF expression (MANF (a form of BDNF)) | incidence of recurrent stroke [1] | interaction with CYP3A4 (CYP3A4) |
| --- | --- | --- | --- |
| O=C([O-])[O-].[Li+].[Li+] [lithium, Lithium Carbonate] | significant increase | – | – |
| O=C1CCc2cc(OCCCCc3nnnn3C3CCCCC3)ccc2N1 [Cilostazol] | – | significantly reduce the incidence of recurrent stroke | substrate for CYP3A4 |
